Results as given in US4267102A, “Bleomycin group antibiotics” (Nippon Kayaku Kabushiki Kaisha, priority 1979, dated 1981).
Where “and” joins values, the source holds several entries; their conditions need not be identical. Equal entries are not always repeated.

Tests used:
[1] = system: Mycobacterium smegmatis ATCC 607; experiment: Antimicrobial activity against Mycobacterium smegmatis ATCC 607 (cylinder agar plate method); type: cell-based
Procedure: 4. Antimicrobial activity against Mycobacterium smegmatis ATCC 607.
The antibacterial activity was assayed by the cylinder agar plate method against the above bacterium by assuming the activity of standard copper-free bleomycin A2 to be 1,000 mcg units/mg.
Note: Antimicrobial activity was assayed against Mycobacterium smegmatis ATCC 607 by assuming the activity of bleomycin A2 (copper-free form) to be 1,000 mcg units/mg. The same shall apply hereinafter.

HeLa S3 cells = experiment: Growth inhibitory effect on cultured HeLa cells; type: cell-based; conditions: Cu-free; three days cultivation with sample
Procedure: 3. Growth inhibitory effect on cultured HeLa cells.
HeLa S3 cells were inoculated into a medium (MEM with the addition of 10% calf serum) in a plastic Petri dish. After two days from the inoculation, N-methylbleomycinic acid or a N-methylbleomycin was added to the dish and after cultivation for further three days, the number of cells was counted. The growth inhibition (%) was calculated by the following equation: [formula] where A is the final number of cells on the third day from the addition of the test sample, B the final number of cells in a control culture without the addition of the test sample, and C the number of cells at the time of addition of the test sample. The value of ID50 (concentration for 50% inhibition) was calculated from the graph obtained by plotting the concentration of sample against the growth inhibition. A similar test was performed on bleomycinic acid and bleomycins used as control.

[2] = system: DNA labelled with tritium; experiment: DNA-strand cleaving activity in cell-free system; type: biochemical; conditions: copper-free compound with divalent iron, oxygen, 37° C., 5 minutes
Procedure: 2. DNA-strand cleaving activity in cell-free system.
The mechanism of carcinostatic action of bleomycins has been believed to involve the cleavage of DNA chain caused by the joint action of copper-free bleomycins, divalent iron and molecular oxygen. Similar activity of N-methylbleomycins were also confirmed.
A mixture of divalent iron and a copper-free N-methylbleomycin was dissolved together with DNA labelled with tritium in a M/10 phosphate buffer of pH 7.4 The resulting solution was allowed to react in the presence of oxygen at 37° C. for 5 minutes. To the reaction mixture, was added 25% trichloroacetic acid. The precipitate was removed by centrifugation and the supernatant (acid-soluble fraction) was assayed for radioactivity to obtain the percentage of acid-soluble DNA in acid. This percentage was utilized as an index of the degree of DNA-strand cleavage. Similar test was repeated on bleomycins A2 and B2 used as reference.

inactivating enzyme = inactivating enzyme (Rattus norvegicus, UniProt P70645); conditions: rat liver extract, 37° C., 15, 30, 60 and 120 minutes; residual activity against Mycobacterium smegmatis ATCC 607
Procedure: Test for resistance to inactivating enzyme.
(1) Extraction of inactivating enzyme.
The liver of female Donryu strain rat was ground in twice by weight of M/15 phosphate buffer of pH 7.2 to prepare a tissue emulsion. The emulsion was centrifuged at 105,000×G for 60 minutes and the supernatant was dialyzed with the above buffer. A high molecular fraction thus obtained was used as the extract solution of an inactivating enzyme.
(2) Examination of inactivating reaction.

[3] = Table 6, Cu-complex, standard copper-free bleomycin A2 assumed 1,000 mcg units/mg
[4] = Table 6, Cu-free, standard copper-free bleomycin A2 assumed 1,000 mcg units/mg
[5] = sample concentration 6.25 mcg/ml
[6] = sample concentration 12.5 mcg/ml
[7] = Examples, step A product: copper complex hydrochloride, bleomycin A2 (copper-free form) assumed 1,000 mcg units/mg
[8] = Examples, step B product: copper-free hydrochloride, bleomycin A2 (copper-free form) assumed 1,000 mcg units/mg

inactivating enzyme, sequence (P70645 whole entry): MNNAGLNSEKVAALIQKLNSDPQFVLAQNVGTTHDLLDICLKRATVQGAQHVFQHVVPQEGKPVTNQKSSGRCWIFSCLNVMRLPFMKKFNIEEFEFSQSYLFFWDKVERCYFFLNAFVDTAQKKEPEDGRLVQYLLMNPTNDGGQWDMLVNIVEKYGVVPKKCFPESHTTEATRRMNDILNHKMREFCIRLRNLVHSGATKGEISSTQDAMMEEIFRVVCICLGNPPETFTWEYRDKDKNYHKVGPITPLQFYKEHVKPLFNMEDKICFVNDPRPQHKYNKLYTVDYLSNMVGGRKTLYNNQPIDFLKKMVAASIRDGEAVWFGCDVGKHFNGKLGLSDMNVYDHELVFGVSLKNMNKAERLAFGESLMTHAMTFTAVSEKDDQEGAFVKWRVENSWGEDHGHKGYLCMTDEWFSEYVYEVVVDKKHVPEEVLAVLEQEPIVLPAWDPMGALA

Compound	Antimicrobial activity [1, 3]	Antimicrobial activity [1, 4]	50% growth inhibitory concentration (ID50) against cultured HeLa S3 cells (HeLa S3 cells) [µg/mL]	Acid-soluble DNA (%) [2, 5] [%]	Acid-soluble DNA (%) [2, 6] [%]	Acid-soluble DNA (%) ([2]; sample concentration 25 mcg/ml)	Antimicrobial activity [1, 7]	Antimicrobial activity [1, 8]	Resistance to inactivating enzyme (residual activity with reaction time, FIGS. 1 to 6) (inactivating enzyme)
3-(3-n-butylaminopropylamino)propylamino-N-methylbleomycin [Compound (6)]	3,695 mcg units/mg	3,438 mcg units/mg	0.37	59.5	94.0	100.4	–	–	–
3-(3-n-butylaminopropylamino)propylaminobleomycin [reference compound]	–	–	0.43	–	–	–	–	–	–
3-[(S)-1'-phenylethylamino]propylamino-N-methylbleomycin [Compound (5)]	4,266 mcg units/mg	4,333 mcg units/mg	0.30	70.1	92.6	100.5	4,320 mcg units/mg	4,280 mcg units/mg	–
Cc1c(N)nc(C(CC(N)=O)NCC(N)C(N)=O)nc1C(=O)NC(C(=O)NC(C)C(O)C(C)C(=O)NC(C(=O)NCCc1nc(-c2nc(C(=O)NCCCNC(C)c3ccccc3)cs2)cs1)C(C)O)C(OC1OC(CO)C(O)C(O)C1OC1OC(CO)C(O)C(OC(N)=O)C1O)c1c[nH]cn1 [3-[(S)-1'-phenylethylamino]propylaminobleomycin, reference compound]	–	–	0.52	–	–	–	–	–	–
Cc1c(N)nc([C@H](CC(N)=O)NC[C@H](N)C(N)=O)nc1C(=O)N[C@H](C(=O)N[C@H](C)[C@@H](O)[C@H](C)C(=O)N[C@H](C(=O)NCCc1nc(-c2nc(C(=O)NCCCN)cs2)cs1)[C@@H](C)O)[C@@H](O[C@@H]1O[C@@H](CO)[C@@H](O)[C@H](O)[C@@H]1O[C@H]1O[C@H](CO)[C@@H](O)[C@H](OC(N)=O)[C@@H]1O)c1cnc[nH]1 [Bleomycin A2 -b, bleomycin A2 '-b, reference compound]	–	–	1.5	–	–	–	–	–	–
Cc1c(N)nc([C@H](CC(N)=O)NC[C@H](N)C(N)=O)nc1C(=O)N[C@H](C(=O)N[C@H](C)[C@@H](O)[C@H](C)C(=O)N[C@H](C(=O)NCCc1nc(-c2nc(C(=O)NCCC[S+](C)C)cs2)cs1)[C@@H](C)O)[C@@H](O[C@@H]1O[C@@H](CO)[C@@H](O)[C@H](O)[C@@H]1O[C@H]1O[C@H](CO)[C@@H](O)[C@H](OC(N)=O)[C@@H]1O)c1c[nH]cn1.[Br-] [Bleomycin A2, reference compound]	–	–	0.73	78.6	90.8	100.9	–	–	–
Cc1c(N)nc(C(CC(N)=O)NCC(N)C(N)=O)nc1C(=O)NC(C(=O)NC(C)C(O)C(C)C(=O)NC(C(=O)NCCc1nc(-c2nc(C(=O)O)cs2)cs1)C(C)O)C(OC1OC(CO)C(O)C(O)C1OC1OC(CO)C(O)C(OC(N)=O)C1O)c1cnc[nH]1 (centres unmarked) [Bleomycinic acid, reference compound]	–	–	18	–	–	–	–	–	markedly susceptible
Bleomycin B2 [reference compound]	–	–	0.80	85.6	95.8	98.2	–	–	–
N-methylbleomycin A2 '-b [Compound (4)]	625 mcg units/mg	595 mcg units/mg	0.58	61.7	94.1	99.4	–	618 mcg units/mg	–
N-methylbleomycin A2 [Compound (2)]	423 mcg units/mg	513 mcg units/mg	0.81	64.6	90.7	99.9	520 mcg units/mg and 516 mcg units/mg and 507 mcg units/mg	418 mcg units/mg and 427 mcg units/mg and 420 mcg units/mg	–
N-methylbleomycin B2 [Compound (3)]	1,755 mcg units/mg	1,766 mcg units/mg	0.35	87.6	95.5	102.1	1,758 mcg units/mg and 1,770 mcg units/mg	1,752 mcg units/mg and 1,756 mcg units/mg	–
N-methylbleomycinic acid [Compound (1)]	64 mcg units/mg	59 mcg units/mg	4.8	–	–	–	–	–	–
